Patent USRE48267E1, “Variants of C-type natriuretic peptide” (priority 2009, dated 2020)
Like-named read-outs stand apart in the source and are kept apart here. Marks after values point to notes of the source that are not given here. Blank lines part the entries; values can stand above or below the molecule they belong to. Where a SMILES comes first, the peptide text is derived from it. Bridges are numbered along the chain shown (N, C = ends). The star is where a group is joined. CH3O(CH2CH2O)11CH2CH2CO = COCCOCCOCCOCCOCCOCCOCCOCCOCCOCCOCCOCCC(=O)*

Columns and labels:
Recombinant human NEP = Recombinant human NEP (Homo sapiens, UniProt P08473); test: in vitro NEP cleavage assay (disappearance of non-cleaved CNP variant)
Recombinant human NEP, sequence (P08473 whole entry): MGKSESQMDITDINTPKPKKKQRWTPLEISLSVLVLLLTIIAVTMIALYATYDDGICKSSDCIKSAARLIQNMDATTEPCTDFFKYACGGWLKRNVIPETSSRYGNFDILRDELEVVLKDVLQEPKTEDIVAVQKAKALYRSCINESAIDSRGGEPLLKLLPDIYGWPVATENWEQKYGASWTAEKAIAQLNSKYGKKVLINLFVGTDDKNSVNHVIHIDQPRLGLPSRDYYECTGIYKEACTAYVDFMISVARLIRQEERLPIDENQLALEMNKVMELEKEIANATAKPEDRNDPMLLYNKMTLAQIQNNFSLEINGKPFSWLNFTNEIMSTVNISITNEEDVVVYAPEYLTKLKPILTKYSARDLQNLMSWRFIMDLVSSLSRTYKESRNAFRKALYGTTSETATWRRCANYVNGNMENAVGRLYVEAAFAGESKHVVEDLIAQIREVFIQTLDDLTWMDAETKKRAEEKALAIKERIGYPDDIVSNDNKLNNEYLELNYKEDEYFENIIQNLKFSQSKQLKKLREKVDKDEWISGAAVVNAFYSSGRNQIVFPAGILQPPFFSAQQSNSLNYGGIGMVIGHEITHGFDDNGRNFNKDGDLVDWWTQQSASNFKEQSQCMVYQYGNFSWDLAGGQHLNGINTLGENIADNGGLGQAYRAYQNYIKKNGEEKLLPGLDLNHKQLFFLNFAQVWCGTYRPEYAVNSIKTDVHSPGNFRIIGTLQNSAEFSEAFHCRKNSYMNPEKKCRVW
Procedure, shortened: (§1)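 Recombinant human NEP (1 ug/mL final) incubated with 100 uM CNP variant in 0.1 M Tris, pH 7, at 37° C for various times, then quenched with EDTA (10 mM final) and heat. Samples reduced and analysed by HPLC and mass spectrometry. Half-life derived from loss of intact variant over time.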

wild-type FVB mice [1] = test: efficacy of CNP variants on bone growth in wild-type mice; type: in vivo, mouse; details: 200 nmol/kg s.c. once daily for 5 weeks
Protocol: The in vivo effects of CNP variants on bone growth were assessed in wild-type mice. Three week old FVB wild-type male mice received daily subcutaneous (s.c.) injection of either vehicle, G-CNP37 (200 nmol/kg) or […]”) (SEQ ID NO: 36) (200 nmol/kg) for 5 weeks. Body weight was measured at least once weekly. Tail length was measured at least once weekly using digital caliper readings, and body length (naso-anal length), bone length (tibia, femur, ulna and humerus), skull length (anterior to posterior cranial segment) and lumbar vertebrae 5 (LV5) length were measured after 5 weeks of treatment using a caliper. X-rays were taken at baseline and after 5 weeks of treatment. […] In another study, various dosing regimens of Pro-Gly-CNP37 were administered for nine weeks followed by one week of recovery. Wild-type FVB mice were dosed s.c. with: • (1) vehicle daily for nine weeks, followed by one week of recovery; • (2) 20 nmol/kg Pro -Gly-CNP37 daily for one week, followed by three doses per week for eight weeks and one week of recovery; • (3) 20 nmol/kg Pro-Gly-CNP37 on alternating weeks; or • (4) 5 nmol/kg Pro-Gly-CNP37 daily for nine weeks followed by one week of recovery.

[2] = IgG assay (immunogenicity) in mice
Protocol: An IgG assay was performed to assess whether an IgG immune response was triggered by 5 week exposure of achondroplastic FGFR3^ach mice to CNP22, CNP37 or PEO24-GANRR-CNP22(K4R) (“CNP27-PEO24”) (SEQ ID NO: 36). IgG is the most predominant immunoglobulin in mouse and human serum and is produced as part of the secondary immune response to an antigen. The IgG response to administration of the CNP peptides was determined as follows. 96-well plates were coated with 100 ng/mL CNP22, CNP37 or PEO24-GANRR-CNP22(K4R) (SEQ ID NO: 36) in BupH PBS buffer (Pierce/Thermo, Cat. No. 28372, Rockford, Ill.). After overnight incubation, plates were blocked with Casein-PBS blocking buffer (Pierce/Thermo, Cat. No. 37528) for two hours at room temperature with shaking at 300 rpm. After washing with wash buffer (1×PBS with 0.05% Tween), diluted serum samples from a terminal bleed (diluted 1:25) were added to the plate. Positive and negative controls were also loaded onto the plate. Positive control was 1:25 diluted serum (pooled from 6 individual FVB mice) with anti-CNP22 antibody added (Bachem rabbit anti-CNP22 IgG, Cat. No. T-4222) at 1:1000 dilution. Negative control was the diluted pooled serum. After two hours of incubation, the plates were washed and secondary antibody diluted in blocking buffer was added to the wells. For the mouse serum samples, anti-mouse IgG Fcγ (peroxidase-conjugated affinipure goat anti-mouse IgG, Fcγ fragment, Cat. No. 115-035-071, Jackson Immunoresearch, West Grove, Pa.) was added at a 1:10,000 dilution. For the positive and negative controls, anti-rabbit IgG-HRP (Santa Cruz Biotechnology, Cat. No. SC-2004, Santa Cruz, Calif.) was added to blocking buffer. After two hours of incubation at room temperature with shaking at 300 rpm, plates were washed with wash buffer. 100 uL of TMB (One-step TMB, Pierce/Thermo, Cat. No. 34022) was added to all wells. Plates were incubated at room temperature for 15 minutes with shaking at 300 rpm. Colorimetric reactions were stopped by the addition of 100 uL of 2 N H2SO4. Plates were read at 450 nm (Spectramax, Molecular Devices, Sunnyvale, Calif.) and data was analyzed using SoftMax Pro software (Molecular Devices).
The immunogenic response of wild-type mice administered G-CNP37, PEO12-GANRR-CNP22(K4R) (SEQ ID NO: 36) or Pro-Gly-CNP37, as measured by an increase in serum IgG level, was also assessed by examining terminal bleed serum samples as described above.

[3] = pharmacokinetics in rats (plasma CNP immunoreactivity by RIA); type: in vivo, rat
Protocol: Recombinant wild-type CNP22, CNP37 and PEO24-GANRR-CNP22 […]) (SEQ ID NO: 36) were evaluated. […] Standard and QC samples were prepared. […] Plasma CNP immunoreactivity was employed for pharmacokinetics (PK) analysis. PK analysis was performed using WINNONLIN® Professional (Pharsight Corporation).

[4] = normal human; cited from earlier work
NPR-B = NPR-B (Homo sapiens, UniProt P20594); details: read-out: affinity to NPR-B; cited from earlier work
NPR-B, sequence (P20594 23-1047, species assumed): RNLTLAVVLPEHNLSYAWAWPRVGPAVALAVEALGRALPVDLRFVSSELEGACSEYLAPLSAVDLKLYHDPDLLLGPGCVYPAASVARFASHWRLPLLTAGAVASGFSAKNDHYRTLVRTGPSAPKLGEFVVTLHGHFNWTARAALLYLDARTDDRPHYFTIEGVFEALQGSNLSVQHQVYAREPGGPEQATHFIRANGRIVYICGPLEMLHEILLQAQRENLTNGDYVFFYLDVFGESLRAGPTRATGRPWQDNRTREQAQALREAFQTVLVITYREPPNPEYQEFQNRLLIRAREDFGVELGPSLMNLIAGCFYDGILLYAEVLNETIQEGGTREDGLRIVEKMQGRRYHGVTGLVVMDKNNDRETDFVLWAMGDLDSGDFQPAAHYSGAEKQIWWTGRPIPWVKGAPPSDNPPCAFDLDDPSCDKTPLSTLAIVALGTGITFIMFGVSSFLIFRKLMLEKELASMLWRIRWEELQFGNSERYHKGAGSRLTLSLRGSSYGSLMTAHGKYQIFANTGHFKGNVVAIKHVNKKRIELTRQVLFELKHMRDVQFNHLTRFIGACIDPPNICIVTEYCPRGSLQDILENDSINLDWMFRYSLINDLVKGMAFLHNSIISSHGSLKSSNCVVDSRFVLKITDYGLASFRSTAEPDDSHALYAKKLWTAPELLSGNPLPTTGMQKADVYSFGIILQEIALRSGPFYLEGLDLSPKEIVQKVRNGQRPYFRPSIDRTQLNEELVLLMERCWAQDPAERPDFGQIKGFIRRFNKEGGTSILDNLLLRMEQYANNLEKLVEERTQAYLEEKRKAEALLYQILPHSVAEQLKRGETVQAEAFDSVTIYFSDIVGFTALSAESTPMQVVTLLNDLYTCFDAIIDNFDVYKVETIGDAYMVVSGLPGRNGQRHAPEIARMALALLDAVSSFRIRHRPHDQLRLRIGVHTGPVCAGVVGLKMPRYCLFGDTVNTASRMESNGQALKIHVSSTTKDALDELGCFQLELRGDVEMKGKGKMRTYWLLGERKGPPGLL

NPR-C = NPR-C (Homo sapiens, UniProt P17342); details: read-out: affinity to NPR-C; cited from earlier work
NPR-C, sequence (P17342 27-541, species assumed): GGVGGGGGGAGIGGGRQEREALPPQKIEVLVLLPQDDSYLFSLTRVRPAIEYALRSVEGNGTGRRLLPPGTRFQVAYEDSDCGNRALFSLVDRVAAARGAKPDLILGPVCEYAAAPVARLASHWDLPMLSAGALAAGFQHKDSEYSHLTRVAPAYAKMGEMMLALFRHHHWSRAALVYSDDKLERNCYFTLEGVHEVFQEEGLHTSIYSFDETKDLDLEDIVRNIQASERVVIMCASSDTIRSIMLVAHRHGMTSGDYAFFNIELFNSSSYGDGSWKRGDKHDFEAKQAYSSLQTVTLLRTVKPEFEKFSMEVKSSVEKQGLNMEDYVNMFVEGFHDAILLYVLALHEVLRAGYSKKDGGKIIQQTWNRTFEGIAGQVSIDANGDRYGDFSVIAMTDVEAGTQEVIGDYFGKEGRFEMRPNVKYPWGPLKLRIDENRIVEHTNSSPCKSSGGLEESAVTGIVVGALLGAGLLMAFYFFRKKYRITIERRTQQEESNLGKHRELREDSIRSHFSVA

[5] = molecular target: NPR-B (natriuretic peptide receptor B), murine, expressed endogenously on NIH3T3 cells (murine) (UniProt Q6VVW5); test: cell-based or functional assay
NPR-B (natriuretic peptide receptor B), murine, expressed endogenously on NIH3T3 cells (murine), sequence (Q6VVW5 17-1047): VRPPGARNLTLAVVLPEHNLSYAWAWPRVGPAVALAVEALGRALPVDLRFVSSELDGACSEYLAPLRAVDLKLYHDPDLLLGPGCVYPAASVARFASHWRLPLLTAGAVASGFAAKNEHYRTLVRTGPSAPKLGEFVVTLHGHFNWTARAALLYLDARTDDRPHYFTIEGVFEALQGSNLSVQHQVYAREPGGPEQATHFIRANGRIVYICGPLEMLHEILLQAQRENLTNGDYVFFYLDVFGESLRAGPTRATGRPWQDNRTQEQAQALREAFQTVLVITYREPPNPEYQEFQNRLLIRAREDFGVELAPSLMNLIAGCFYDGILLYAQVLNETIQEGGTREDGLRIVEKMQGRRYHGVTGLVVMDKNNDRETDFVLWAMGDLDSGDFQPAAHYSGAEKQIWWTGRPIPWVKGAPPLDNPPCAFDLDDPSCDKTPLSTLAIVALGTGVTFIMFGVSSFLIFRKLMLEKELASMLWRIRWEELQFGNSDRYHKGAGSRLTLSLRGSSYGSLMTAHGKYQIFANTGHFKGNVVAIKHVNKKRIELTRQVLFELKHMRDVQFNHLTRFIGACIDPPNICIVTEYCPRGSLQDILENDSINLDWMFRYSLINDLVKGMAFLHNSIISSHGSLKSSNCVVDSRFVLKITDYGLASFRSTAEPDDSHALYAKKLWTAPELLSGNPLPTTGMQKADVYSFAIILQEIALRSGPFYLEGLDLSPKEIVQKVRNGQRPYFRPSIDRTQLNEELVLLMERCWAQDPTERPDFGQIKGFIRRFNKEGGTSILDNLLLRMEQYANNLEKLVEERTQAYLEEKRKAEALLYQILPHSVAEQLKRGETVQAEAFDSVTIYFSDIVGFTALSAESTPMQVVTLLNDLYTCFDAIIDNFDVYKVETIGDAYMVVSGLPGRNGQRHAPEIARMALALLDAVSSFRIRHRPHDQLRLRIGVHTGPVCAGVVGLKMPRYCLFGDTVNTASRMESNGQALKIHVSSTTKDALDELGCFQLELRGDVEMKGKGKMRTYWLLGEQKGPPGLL

[6] = molecular target: neutral endopeptidase (NEP) (Homo sapiens, UniProt P08473); test: in vitro NEP cleavage assay (disappearance of non-cleaved CNP variant); details: human, pH 7
neutral endopeptidase (NEP), sequence (P08473 whole entry): as the sequence (P08473 whole entry) above
Procedure, shortened: as §1

wild-type FVB mice [7] = details: mouse, in vivo
From the text: Group 1 included vehicle-treated mice injected s.c. daily for 9 weeks followed by 1 week of no treatment. Group 2 included mice treated with Pro-Gly-CNP37 (20 nmol/kg) once daily for 1 week, followed by three doses per week for 8 weeks, followed by 1 week of no treatment. Group 3 contained mice treated with Pro-Gly-CNP37 (20 nmol/kg) once daily in alternate weeks (weeks 1, 3, 5, 7 and 9), with 1 week of no treatment following each week of treatment. Group 4 contained mice treated with Pro-Gly-CNP37 (5 nmol/kg) once daily for 9 weeks followed by 1 week of no treatment. Finally, Group 5 included mice treated with Pro-Gly-CNP37 (5 nmol/kg) once daily for 5 weeks without any week of no treatment. Terminal bleed serum was collected from the mice, and cleaved collagen type II, total alkaline phosphatase and total antibody levels were measured therefrom. Cleaved collagen type II levels were measured as described above. Total alkaline phosphatase levels, predominantly from the liver and bones, were measured with the assistance of a veterinary diagnostic laboratory testing facility (Antech). […] Among the advantages of the ECLA platform, any isotype of antibody (IgG, IgM, etc.) can be detected, and the ECLA assay is species-independent. […] At the end of the 1 hour incubation, the MSD plate was washed and 150 uL of 2× read buffer (MSD Cat. No. R92TC-2) was added to the plate. […]

wild type FVB mice = test: dose responses of CNP variants in wild type FVB mice; details: mouse, in vivo
Protocol: Tail length and body weight were measured over the course of treatment. Animals were sacrificed at the end of the experiment and bone length assessed.

Molecule: CC[C@H](C)[C@@H]1NC(=O)[C@H](CCCNC(=N)N)NC(=O)[C@H](CC(=O)O)NC(=O)[C@H](CC(C)C)NC(=O)[C@H](CCCCN)NC(=O)[C@H](CC(C)C)NC(=O)CNC(=O)[C@H](Cc2ccccc2)NC(=O)[C@@H](NC(=O)CNC(=O)[C@H](CCCNC(=N)N)NC(=O)[C@H](CO)NC(=O)[C@H](CC(C)C)NC(=O)CNC(=O)[C@H](CCCNC(=N)N)NC(=O)[C@H](CCCNC(=N)N)NC(=O)[C@H](CC(N)=O)NC(=O)[C@H](C)NC(=O)CNC(=O)CCOCCOCCOCCOCCOCCOCCOCCOCCOCCOCCOCCOC)CSSC[C@@H](C(=O)O)NC(=O)CNC(=O)[C@H](CC(C)C)NC(=O)CNC(=O)[C@H](CO)NC(=O)[C@H](CCSC)NC(=O)[C@H](CO)NC(=O)CNC1=O [PEO12-GANRR-CNP22(K4R)] ({CH3O(CH2CH2O)11CH2CH2CO}-GANRRGLSRGCFGLKLDRIGSMSGLGC-OH; disulfide 11-27; C-terminus assumed)
resistance to NEP cleavage (in words) (Recombinant human NEP): much greater stability to NEP degradation compared to wtCNP22
Anterior to Posterior (Skull) length, relative to vehicle = 100% (wild-type FVB mice [1]): 101%
Femur length, relative to vehicle = 100% (wild-type FVB mice [1]): 102%*
Humerus length, relative to vehicle = 100% (wild-type FVB mice [1]): 102%*
LV5 length, relative to vehicle = 100% (wild-type FVB mice [1]): 103%
Naso-Anal (body) length, relative to vehicle = 100% (wild-type FVB mice [1]): 104%**
Tail length, relative to vehicle = 100% (wild-type FVB mice [1]): 101%
Tibia length, relative to vehicle = 100% (wild-type FVB mice [1]): 100%
Ulna length, relative to vehicle = 100% (wild-type FVB mice [1]): 96%*
IgG immune response ([2]; mouse, in vivo): None of the wild-type mice

Molecule: CC[C@H](C)[C@@H]1NC(=O)[C@H](CCCNC(=N)N)NC(=O)[C@H](CC(=O)O)NC(=O)[C@H](CC(C)C)NC(=O)[C@H](CCCCN)NC(=O)[C@H](CC(C)C)NC(=O)CNC(=O)[C@H](Cc2ccccc2)NC(=O)[C@@H](NC(=O)CNC(=O)[C@H](CCCCN)NC(=O)[C@H](CO)NC(=O)[C@H](CC(C)C)NC(=O)CN)CSSC[C@@H](C(=O)O)NC(=O)CNC(=O)[C@H](CC(C)C)NC(=O)CNC(=O)[C@H](CO)NC(=O)[C@H](CCSC)NC(=O)[C@H](CO)NC(=O)CNC1=O [CNP22, reference compound]
NEP Cleavage (t1/2, min) (Recombinant human NEP; 100 uM peptide, 1 ug/mL NEP, 0.1 M Tris pH 7, 37° C., adjusted t1/2, CNP22 normalized to 80 min): 80 min
area under the curve, AUC (pmol·min/mL) ([3]; i.v. 20 nmol/kg): 320 (±54) pmol·min/mL
bioavailability ([3]; s.c. 50 nmol/kg): 19%
IgG immune response ([2]; FGFR3^ach mice, 5 week exposure, 200 nmol/kg): no positive IgG immune response in any of the mice
in vivo (plasma) half-life [4]: 2.6 min
Kd (NPR-B): 0.007 to 0.03 nM
Kd (NPR-C): 0.011 to 0.14 nM

cGMP response rel. to 1 uM CNP22; 10 nM peptide, NIH3T3 cells (rel. to 1 uM CNP22 (100)) [5]: 10
cGMP response rel. to 1 uM CNP22; 1 uM peptide, NIH3T3 cells (rel. to 1 uM CNP22 (100)) [5]: 23
Molecule: ANP (atrial natriuretic peptide) (from UniProt P01160 124-151)

Molecule: CC[C@H](C)[C@@H]1NC(=O)[C@H](CCCNC(=N)N)NC(=O)[C@H](CC(=O)O)NC(=O)[C@H](CC(C)C)NC(=O)[C@H](CCCCN)NC(=O)[C@H](CC(C)C)NC(=O)CNC(=O)[C@H](Cc2ccccc2)NC(=O)[C@@H](NC(=O)CNC(=O)[C@H](CCCCN)NC(=O)[C@H](CO)NC(=O)[C@H](CC(C)C)NC(=O)CNC(=O)[C@H](CCCCN)NC(=O)[C@H](CCCCN)NC(=O)[C@H](CC(N)=O)NC(=O)[C@H](C)NC(=O)CNC(=O)[C@H](CCCCN)NC(=O)[C@H](Cc2ccc(O)cc2)NC(=O)[C@H](CCCCN)NC(=O)[C@H](CCCNC(=N)N)NC(=O)[C@H](C)NC(=O)[C@H](CC(N)=O)NC(=O)[C@@H]2CCCN2C(=O)[C@H](Cc2c[nH]cn2)NC(=O)[C@H](CCC(=O)O)NC(=O)[C@H](CCC(N)=O)NC(=O)CNC(=O)[C@@H]2CCCN2)CSSC[C@@H](C(=O)O)NC(=O)CNC(=O)[C@H](CC(C)C)NC(=O)CNC(=O)[C@H](CO)NC(=O)[C@H](CCSC)NC(=O)[C@H](CO)NC(=O)CNC1=O [Pro-Gly-CNP37]
resistance to NEP cleavage (in words) (Recombinant human NEP; in vitro NEP assay, assay period 160 minutes): most resistant to NEP degradation
half-life at 100 uM [6]: > 2.67 h
IgG immune response ([2]; wild-type mice, 5 weeks): None of the wild-type mice
antibody response in the total antibody assay (wild-type FVB mice [7]): did not show a positive antibody response
organ weight compared with vehicle treated animals (wild type FVB mice): no significant changes
